Test results: patent US5698590A, “Prostaglandin derivatives” (Ono Pharmaceutical Co., Ltd., priority 1995, dated 1997)

Tests used:
[1] = system: cutaneous blood flow of the dorsum pedis; test: blood flow increasing effect in anesthetized rats (laser-Doppler flowmetry, AUC); format: in vivo, Male rats; design: Blood flow increasing effect: Total AUC: unit not given here; conditions: for Blood flow increasing effect: Total AUC / Blood flow increasing effect: Dose (A) required to obtain AUC = 771: rat; for Blood flow increasing effect: Total AUC: injection via jugular vein; for Blood flow increasing effect: Dose (A) required to obtain AUC = 771: AUC 771 = effect of PGE1 lipid emulsion 5 μg/kg i.v.; for Blood flow increasing effect: Relative activity (X): relative to comparative compound = 1, from Dose (A)
Protocol: (§1) Male rats weighing 200-350 g were anesthetized with urethane (25% urethane, 6 ml/kg, s.c.). The carotid artery and jugular vein were cannulated with polyethylene tubes for measurement of blood pressure and for drug injection, respectively. Blood pressure was obtained with a disposable pressure transducer kit (Spectramed, Ltd) and recorded with a recticoder (model RJG-4128, Nihon kohden, Ltd). Also, blood flow was monitored as cutaneous blood flow of the dorsum pedis using an attachment-type laser-Doppler flowmeter (model ALF21, Advance, Ltd). Measurements were taken until the values recovered to the level observed before injection of drugs. Injection time was about 10 seconds. The hypotensive effect and blood flow increasing effect were calculated as the maximum hypotensive activity (mmHg) and the area under the curve (AUC) after injection of drugs, respectively.
(§2) The results were represented by the dose required to obtain an effective increase in blood flow (main effect), and by the hypotensive effect (side effect) at the same dose.
(§3) The compounds of the present invention were administered in the form of liposome formulations (as prepared in Example 3 below). […] The solubility of this comparative compound was very low; thus, administration without solubilizer was impossible.
The effectiveness of increasing blood flow was determined by the following method.
(§4) The dry lipid film was dispersed into a 10% maltose solution (3 ml) by using a vortex mixer (type S-100, Taiyokagaku Inc.) and an aqueous suspension with a drug concentration of 1, 3, 10, or 30 μg/ml was obtained. The obtained multilamellar liposome solutions (3 ml) were transferred into plastic tubes and then sonicated with a probe sonicator (type: SONIFIER cell disruptor 200, Branson) at the condition of 50% pulsed operation for 15 minutes. The sonicated solutions were passed through a membrane filter with a pore diameter of 0.2 μm to remove titanium particles and liposome formulations with a mean diameter of 40-70 nm were formed.

blood pressure = test: hypotensive effect in anesthetized rats (maximum hypotensive activity); format: in vivo, Male rats; conditions: for Hypotensive effect: Maximum hypotension on dose (A): at dose (A) required to obtain AUC = 771; for Hypotensive effect: Maximum hypotension on dose (A) / Hypotensive effect: Maximum hypotension: rat; for Hypotensive effect: Maximum hypotension: injection via jugular vein; for Hypotensive effect: Relative activity (X): relative to comparative compound = 1, at dose (A)
Protocol: as §1, §2, §3, §4

[2] = solubility of comparative compound; format: physicochemical; conditions: administration without solubilizer was impossible

Row | Structure (SMILES) | Blood flow increasing effect: Total AUC ([1]; dose 3 μg/kg) | Blood flow increasing effect: Total AUC ([1]; dose 10 μg/kg) | Blood flow increasing effect: Total AUC ([1]; dose 30 μg/kg) | Blood flow increasing effect: Dose (A) required to obtain AUC = 771 [1] [µg/kg] | Blood flow increasing effect: Relative activity (X) [1] | Hypotensive effect: Maximum hypotension on dose (A) (blood pressure) [mmHg] | Hypotensive effect: Maximum hypotension (blood pressure; dose 3 μg/kg) [mmHg] | Hypotensive effect: Maximum hypotension (blood pressure; dose 10 μg/kg) [mmHg] | Hypotensive effect: Maximum hypotension (blood pressure; dose 30 μg/kg) [mmHg] | Hypotensive effect: Relative activity (X) (blood pressure) | solubility [2] | Blood flow increasing effect: Total AUC ([1]; dose 1 μg/kg) | Hypotensive effect: Maximum hypotension (blood pressure; dose 1 μg/kg) [mmHg]
1 | CCCCCCCCCCCCCCCC(=O)OCC(COC(=O)CCCCCCCCCCCCCCC)OC(=O)CCCCCC[C@H]1C(=O)C[C@@H](O)[C@@H]1/C=C/[C@@H](O)CCCCC [Comparative compound, PGE1 1,3-bis(palmitoyloxy)-2-propyl ester, reference compound] | 350 | 710 | 830 | 23.6 | 1 | 7.1 | 1 | 6 | 8 | 1 | very low | – | –
2 | CCCCCCCCCCCC(=O)OCC(COC(=O)CCCCCCCCCCC)OC(=O)CCCCCC[C@H]1C(=O)C[C@@H](O)[C@@H]1/C=C/[C@@H](O)CCCCC [Example 1, PGE1 1,3-bis (dodecanoyloxy)-2-propyl ester] | 483 | 2566 | – | 3.6 | 6.6 | 2.2 | 1 | 9 | – | 0.31 | – | 116 | 0
3 | CCCCCC(=O)OCC(COC(=O)CCCCC)OC(=O)CCCCCC[C@H]1C(=O)C[C@@H](O)[C@@H]1/C=C/[C@@H](O)CCCCC [Example 2, PGE1 1,3-bis (hexanoyloxy)-2-propyl ester] | 1206 | 3919 | – | 2.2 | 10.7 | 6.7 | 9 | 19 | – | 0.94 | – | 185 | 4
